Results from US20240261261A1, “NEW FORMULATION FOR INJECTION COMPRISING 1-(5-(2,4-DIFLUOROPHENYL)-1-((3-FLUOROPHENYL)SULFONYL)-4-METHOXY-1H-PYRROL-3-YL)-N-METHYLMETHANAMINE” (DAEWOONG PHARMACEUTICAL CO., LTD., priority 2021, published 2024).

Experiment: Water solubility
Type: physicochemical
Settings: aqueous buffer, pH 6.8, the substance or its hydrochloride

solubility: 2170 µg/mL
Structure (SMILES): CNCc1cn(S(=O)(=O)c2cccc(F)c2)c(-c2ccc(F)cc2F)c1OC [Chemical Formula 1, 1-(5-(2,4-difluorophenyl)-1-((3-fluorophenyl)sulfonyl)-4-methoxy-1H-pyrrol-3-yl)-N-methylmethanamine]
